The text below walks through data of ChEMBL document CHEMBL1177643, “Synthesis, DNA-binding ability and anticancer activity of benzothiazole/benzoxazole-pyrrolo[2,1-c][1,4]benzodiazepine conjugates” (Bioorg Med Chem, 2010).

The subject of the experiment is Calf thymus DNA. Kind of experiment: Binding affinity to calf thymus duplex-form DNA assessed as melting temperature at 1:5 compound/DNA ratio after 18 hrs. The class given is nucleic-acid assay. Particulars: Bos taurus.

The ΔTm is the shift of the melting midpoint relative to a reference.

Consider `COc1cc2c(cc1OCCCCC(=O)Nc1ccc(-c3nc4ccc(F)cc4s3)cc1)N=C[C@@H]1CCCN1C2=O`, for which the thermal shift (ΔTm) was 2.3 °C.
